“And” between values parts separate entries of the source, which are not always exact repeats. Equal values may be shown once.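 A five-concentration, 48-hour dose response in 96-well plates underlies each endpoint, interpolated linearly between surrounding concentrations. GI50 = concentration required for 50% inhibition of growth. TGI: total growth inhibition.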 Where a SMILES comes first, the peptide text is derived from it. [ ]: non-standard residue; d: D form. The star is where a group is joined. ξ: configuration not given here. X3 = COc1ccc(C(N*)c2ccc(OC)cc2)cc1; NMeF = CN[C@@H](Cc1ccccc1)C(=O)O; NMeD = CN[C@@H](CC(=O)O)C(=O)O; NMeV = CN[C@H](C(=O)O)C(C)C; ξNMeV = CNC(C(=O)O)C(C)C; Boc = CC(C)(C)OC(=O)*; ξNMeA = CNC(C)C(=O)O; ξV = CC(C)C(N)C(=O)O
Key:
Assay in all cases: growth of human tumour cells (NCI), 48 h
BT-549 breast = tested on: BT-549 breast
UACC-257 melanoma = tested on: UACC-257 melanoma
RPMI-8226 leukemia = tested on: RPMI-8226 leukemia
K-562 leukemia = tested on: K-562 leukemia
RXF 393 renal = tested on: RXF 393 renal
U251 CNS = tested on: U251 CNS
SF-539 CNS = tested on: SF-539 CNS
SW-620 colon = tested on: SW-620 colon
OVCAR-8 ovarian = tested on: OVCAR-8 ovarian
HL-60(TB) leukemia = tested on: HL-60(TB) leukemia

SMILES | GI50 (BT-549 breast) | TGI (BT-549 breast) | GI50 (UACC-257 melanoma) | TGI (UACC-257 melanoma) | GI50 (RPMI-8226 leukemia) | TGI (RPMI-8226 leukemia) | GI50 (K-562 leukemia) | TGI (K-562 leukemia) | GI50 (RXF 393 renal) | TGI (RXF 393 renal) | GI50 (U251 CNS) | TGI (U251 CNS) | GI50 (SF-539 CNS) | TGI (SF-539 CNS) | GI50 (SW-620 colon) | TGI (SW-620 colon) | GI50 (OVCAR-8 ovarian) | TGI (OVCAR-8 ovarian) | GI50 (HL-60(TB) leukemia) | TGI (HL-60(TB) leukemia)
Nc1cc(NN=C(c2ccc(O)cc2)c2ccc(O)cc2)c([N+](=O)[O-])cc1[N+](=O)[O-] | 2.46 µM | 6.78 µM | 4.3 µM | 17.1 µM | 2.15 µM | 6.46 µM | 3.62 µM | 31.7 µM | 1.59 µM | 3.15 µM | 1.93 µM | 4.15 µM | 1.7 µM | 3.85 µM | 1.58 µM | 2.93 µM | 3.12 µM | 15.1 µM | 3.04 µM | 14 µM
COc1ccc(C(NC(=O)C[C@@H](C(=O)N(C)C(C)C(=O)O)N(C)C(=O)[C@@H]2CCCN2C(=O)[C@H](C(C)C)N(C)C(=O)C(C(C)C)N(C)C(=O)[C@H](Cc2ccccc2)N(C)C(=O)C(NC(=O)OC(C)(C)C)C(C)C)c2ccc(OC)cc2)cc1 (stereo partly specified) (Boc-[ξV][NMeF][ξNMeV][NMeV]P[NMeD](X3)[ξNMeA]-OH) |  | 15.4 µM | 17.3 µM | 23 µM and 32.2 µM |  | 19.5 µM | 18.9 µM | 26.9 µM and 43.8 µM |  | 18.5 µM | 19.4 µM | 23.6 µM and 35.7 µM | 22.5 µM | 17.9 µM and 39.8 µM | 18.3 µM | 16.5 µM and 32.3 µM | 19.1 µM | 37.5 µM and 33.7 µM | 24 µM | 18.7 µM and 45.2 µM
CC1(C)OC1COc1c2occc2cc2ccc(=O)oc12 (stereo unspecified) |  | > 100 µM |  | > 100 µM |  | > 100 µM |  | > 100 µM |  | > 100 µM |  | > 100 µM |  | > 100 µM |  | > 100 µM |  | > 100 µM |  | > 100 µM
Cc1cc(I)cc(CN(CCCN(C)C)C(C)C)c1O | 11.5 µM | 23.9 µM | 16.7 µM | 32.5 µM | 11.5 µM | 26.7 µM | 16.3 µM | 34.7 µM | 16 µM | 46.8 µM | 18.5 µM | 36.1 µM | 15.3 µM | 29.1 µM | 17.3 µM | 31.6 µM | 31.6 µM | > 100 µM | 18.2 µM | 36 µM
COc1cccc(-c2nc(-c3ccc(NC(=O)OC(C)C)cc3)[nH]c2-c2ccnc(Br)c2)c1 | 2.19 µM | > 100 µM | 3.15 µM | > 100 µM | 0.389 µM | 2.21 µM | 1.88 µM | > 100 µM | 0.282 µM | 0.87 µM | 1.69 µM | > 100 µM | 1.53 µM | 5.83 µM | 3.32 µM | > 100 µM | 3.12 µM | > 100 µM | 1.38 µM | 4.06 µM
CCCCCCCCCCCCC(O)c1ccc(C#CCCCCCCCCCO)o1 (stereo unspecified) | 21.7 µM | 42.3 µM | 24.1 µM | 51 µM | 27.2 µM | 71.3 µM | 3.73 µM | 22.6 µM | 17.9 µM | 35.3 µM | 18.5 µM | 33.6 µM | 21.1 µM | 36.8 µM | 22.7 µM | 41.4 µM | 16.5 µM | 33.6 µM |  | 
Oc1[nH]c2ccccc2c1N=Nc1nc(-c2ccc(Br)cc2)cs1 |  | 45.6 µM |  | 66.1 µM |  |  |  |  |  | > 100 µM |  | 28.1 µM |  | 34.3 µM |  | > 100 µM |  | 35.8 µM |  | 
NC(=O)C(=Cn1c(=S)[nH]c2ccc([N+](=O)[O-])cc21)C(N)=O |  | > 100 µM |  | > 100 µM |  |  |  |  |  | > 100 µM |  | > 100 µM |  | > 100 µM |  | > 100 µM |  | > 100 µM |  | > 100 µM
O=C1NC(=NC(CO)Cc2ccccc2)S/C1=C\c1ccc2ncccc2c1 (stereo unspecified) |  | > 25 µM and 11.4 µM | > 25 µM and 5.79 µM | > 25 µM and 19 µM | > 18.4 µM and 2.33 µM | > 25 µM and 12.1 µM | 11.2 µM and 3.48 µM | > 25 µM | 11.5 µM and 3.82 µM | > 25 µM and 10.7 µM | > 20.9 µM and 2.29 µM | > 25 µM | 11.9 µM and 2.73 µM | > 25 µM and 10.1 µM | 9.04 µM and 0.927 µM | > 25 µM | > 21.1 µM and 5.24 µM | > 25 µM | 9.76 µM and 3.88 µM | > 25 µM and 14.3 µM
CC1(COc2ccc3c(c2)ncn3-c2ccc3cccc(N4CCC(N)CC4)c3n2)COC1 | 2.8 µM and 2.64 µM | 12.7 µM and 9.74 µM | 2.7 µM | 5.36 µM and 5.55 µM | 2.08 µM and 1.88 µM | 5.29 µM and 5.21 µM | 2.1 µM and 1.94 µM | 8.36 µM and 8.92 µM | 1.32 µM and 0.893 µM | 3.3 µM and 2.71 µM | 1.7 µM and 1.87 µM | 4.09 µM and 5.66 µM | 1.26 µM and 1.01 µM | 2.65 µM and 2.59 µM | 3.09 µM and 2.52 µM | 11 µM and > 10 µM | 2.82 µM and 2.84 µM | 10.7 µM and > 10 µM | 1.82 µM and 1.8 µM | 4.54 µM and 4.49 µM
CC(C)c1cc2c(cc1S(=O)(=O)O)[C@@]1(C)CCC[C@@](C)(C(=O)O)C1CC2 (stereo partly specified) |  | > 100 µM |  | > 100 µM |  | > 100 µM |  | > 100 µM |  | > 100 µM |  | > 100 µM |  | > 100 µM |  | > 100 µM |  | > 100 µM |  | > 100 µM
CC(C)=CCC(O)C1=CC(=O)c2c(O)ccc(O)c2C1=O (stereo unspecified) |  | 3.17 µM |  | 3.24 µM |  |  |  | 0.602 µM |  | 2.11 µM |  | 4.74 µM |  | 3.01 µM |  | 3.3 µM |  | 3.35 µM |  | 0.0659 µM
N#CC(C#N)=C/C=C(\Sc1nc2ccccc2s1)c1ccc(Cl)cc1 | 11.3 µM | 26.2 µM | 12.1 µM | 25.4 µM |  |  | 1.45 µM | > 24.6 µM | 7.59 µM | 25.9 µM | 6.82 µM | 36.4 µM | 2.83 µM | 9.89 µM | 0.41 µM |  | 7.53 µM | 25 µM |  | 
O=S(=O)(c1ccccc1)c1cccc2c1NCCC2 |  | 83 µM |  | 76.9 µM |  | > 100 µM |  | > 100 µM |  | 90.1 µM |  |  |  | > 100 µM |  | > 100 µM |  | > 100 µM |  | 67.4 µM
COc1cc(-c2ccc3cc(OC)c(OC)c(OC)c3c2)cc(OC)c1OC | 30.1 µM | > 100 µM | > 100 µM | > 100 µM |  |  | 5.07 µM | > 100 µM | 5.91 µM | 44 µM | 15.7 µM | > 100 µM | 23.6 µM | > 100 µM |  |  | > 100 µM | > 100 µM | > 100 µM | > 100 µM
COc1ccc2nc(NC(=O)CSc3nnc4n3S(=O)(=O)c3ccccc3N4c3ccccc3)sc2c1 | > 100 µM | > 100 µM | > 100 µM | > 100 µM | 1.45 µM | > 100 µM | > 100 µM | > 100 µM |  |  | 52.4 µM | > 100 µM | > 100 µM | > 100 µM | > 100 µM | > 100 µM | > 100 µM | > 100 µM | 91.5 µM | > 100 µM

From PubChem BioAssay (NCI)
